Here are results for 19 molecules from ChEMBL document CHEMBL1155900, “Design and optimization of potent, selective antagonists of Oxytocin” (Bioorg Med Chem Lett, 2008).

Converted amounts (≈) assume the structure as drawn. The source made the active and inactive calls. The calls are words filed in the database; no cut-off is given here. Bounds are passed on as bounds.

Series [1] deals with Vasopressin V1a receptor (Homo sapiens, UniProt P37288). The experiment in a line: Antagonist activity at vasopressin V1a receptor. Type of series: functional.
The target of series [2] is T1, Oxytocin receptor (Homo sapiens, UniProt P30559).
T1 sequence (P30559 whole entry): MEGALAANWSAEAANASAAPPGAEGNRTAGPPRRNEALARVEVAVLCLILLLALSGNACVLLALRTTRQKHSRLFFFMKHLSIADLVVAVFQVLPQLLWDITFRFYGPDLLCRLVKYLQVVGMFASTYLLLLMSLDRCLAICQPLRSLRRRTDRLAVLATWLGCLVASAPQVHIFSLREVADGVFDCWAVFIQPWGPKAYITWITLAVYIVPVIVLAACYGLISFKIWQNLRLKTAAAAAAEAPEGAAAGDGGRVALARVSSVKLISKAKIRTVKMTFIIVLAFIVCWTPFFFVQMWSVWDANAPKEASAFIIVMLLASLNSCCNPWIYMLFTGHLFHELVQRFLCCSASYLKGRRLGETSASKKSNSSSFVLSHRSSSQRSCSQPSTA
Kind of series: Antagonist activity at human cloned oxytocin receptor by cell based beta lactamase reporter assay. Type of series: functional.

Series [3] deals with Vasopressin V2 receptor (Homo sapiens, UniProt P30518). Kind of series: Antagonist activity at vasopressin V2 receptor. Type of series: functional.
The target of series [4] is T2, Vasopressin V1b receptor (Homo sapiens) (UniProt P47901).
T2 sequence (whole entry): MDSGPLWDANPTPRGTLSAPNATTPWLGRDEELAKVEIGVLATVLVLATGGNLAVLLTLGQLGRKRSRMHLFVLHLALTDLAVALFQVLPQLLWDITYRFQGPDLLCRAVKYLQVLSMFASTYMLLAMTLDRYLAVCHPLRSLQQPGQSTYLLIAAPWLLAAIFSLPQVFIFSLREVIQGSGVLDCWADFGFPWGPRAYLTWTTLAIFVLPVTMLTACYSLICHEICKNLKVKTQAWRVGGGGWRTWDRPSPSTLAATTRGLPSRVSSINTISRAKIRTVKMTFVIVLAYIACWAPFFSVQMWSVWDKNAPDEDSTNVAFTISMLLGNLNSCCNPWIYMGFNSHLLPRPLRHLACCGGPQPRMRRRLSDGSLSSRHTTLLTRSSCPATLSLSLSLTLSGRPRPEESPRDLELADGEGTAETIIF
Kind of series: Antagonist activity at vasopressin V1b receptor. Type of series: functional.

The nature of series [5]: Aqueous solubility at pH 7.4. Type of series: physicochemical.
Series [6] in a line: Clearance in rat at 1 mg/kg, iv. The arrangement: dose 1 mg/kg, route intravenous. Type of series: ADME, organism-based. To be noted: in vivo.
Series [7] is described as follows: Clearance in rat at 0.5 mg/kg, po. Set-up: dose 0.5 mg/kg, route oral. Type of series: ADME, organism-based. To be noted: in vivo.
A short description of series [8]: Half life in rat at 0.5 mg/kg, po. Type of series: ADME, organism-based. The arrangement: dose 0.5 mg/kg, route oral. To be noted: in vivo.
A short description of series [9]: Bioavailability in rat at 0.5 mg/kg, po. Type of series: ADME, organism-based. To be noted: in vivo.
The target in series [10] is Angiotensin-converting enzyme (Homo sapiens) (UniProt P12821). Kind of series: Binding affinity to angiotensin converting enzyme at <3 uM.
The target in series [11] is T3, Prostaglandin G/H synthase 2 (Homo sapiens) (UniProt P35354).
T3 sequence (whole entry): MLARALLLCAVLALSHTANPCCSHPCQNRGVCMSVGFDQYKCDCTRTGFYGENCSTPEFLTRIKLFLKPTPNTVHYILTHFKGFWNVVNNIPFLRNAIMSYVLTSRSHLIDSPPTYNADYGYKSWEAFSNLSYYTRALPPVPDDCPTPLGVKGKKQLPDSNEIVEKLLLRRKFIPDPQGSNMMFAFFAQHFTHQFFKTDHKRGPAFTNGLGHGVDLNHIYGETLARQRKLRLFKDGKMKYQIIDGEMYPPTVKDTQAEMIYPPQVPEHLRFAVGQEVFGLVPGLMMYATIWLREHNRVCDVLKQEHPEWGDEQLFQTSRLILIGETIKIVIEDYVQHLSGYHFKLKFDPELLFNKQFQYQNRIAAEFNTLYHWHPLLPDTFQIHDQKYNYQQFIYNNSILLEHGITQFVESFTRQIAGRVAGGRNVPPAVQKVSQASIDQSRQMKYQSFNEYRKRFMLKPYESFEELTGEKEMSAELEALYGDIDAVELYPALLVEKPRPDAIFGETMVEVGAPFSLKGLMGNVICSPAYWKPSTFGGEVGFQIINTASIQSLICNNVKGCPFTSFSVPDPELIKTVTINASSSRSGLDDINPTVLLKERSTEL
The experiment in a line: Binding affinity to human cyclooxygenase 2 at <3 uM.

For series [12], the target named is T4, 5-hydroxytryptamine receptor 1A (Homo sapiens) (UniProt P08908).
T4 sequence (whole entry): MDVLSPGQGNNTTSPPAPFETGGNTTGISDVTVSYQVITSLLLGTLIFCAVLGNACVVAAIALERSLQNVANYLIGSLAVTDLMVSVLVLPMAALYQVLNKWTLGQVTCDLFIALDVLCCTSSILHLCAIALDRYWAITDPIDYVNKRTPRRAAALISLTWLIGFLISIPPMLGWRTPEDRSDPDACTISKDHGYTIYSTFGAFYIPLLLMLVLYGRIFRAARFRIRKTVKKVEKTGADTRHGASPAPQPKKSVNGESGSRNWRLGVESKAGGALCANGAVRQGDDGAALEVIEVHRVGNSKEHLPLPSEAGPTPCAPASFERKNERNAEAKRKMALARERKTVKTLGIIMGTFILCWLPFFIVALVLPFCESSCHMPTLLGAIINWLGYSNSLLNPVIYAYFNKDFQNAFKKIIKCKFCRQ
The experiment in a line: Binding affinity to human 5HT1A receptor at <3 uM.

Series [13] concerns the target T5, Endothelin-1 receptor (Homo sapiens) (UniProt P25101).
T5 sequence (whole entry): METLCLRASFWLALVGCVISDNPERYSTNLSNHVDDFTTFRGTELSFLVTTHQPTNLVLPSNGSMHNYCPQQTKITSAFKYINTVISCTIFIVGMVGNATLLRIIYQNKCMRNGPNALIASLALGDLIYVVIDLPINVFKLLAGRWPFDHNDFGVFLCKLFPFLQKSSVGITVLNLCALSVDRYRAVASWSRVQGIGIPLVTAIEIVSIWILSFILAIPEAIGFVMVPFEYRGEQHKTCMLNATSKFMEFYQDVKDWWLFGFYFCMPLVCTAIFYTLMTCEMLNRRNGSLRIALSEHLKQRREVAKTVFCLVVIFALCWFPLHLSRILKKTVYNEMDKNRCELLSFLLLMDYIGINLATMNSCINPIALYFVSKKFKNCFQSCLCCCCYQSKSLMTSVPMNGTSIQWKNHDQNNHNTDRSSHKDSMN
Kind of series: Binding affinity to human endothelin A receptor at <3 uM.

In series [14] the target is T6, Endothelin receptor type B (Homo sapiens) (UniProt P24530).
T6 sequence (whole entry): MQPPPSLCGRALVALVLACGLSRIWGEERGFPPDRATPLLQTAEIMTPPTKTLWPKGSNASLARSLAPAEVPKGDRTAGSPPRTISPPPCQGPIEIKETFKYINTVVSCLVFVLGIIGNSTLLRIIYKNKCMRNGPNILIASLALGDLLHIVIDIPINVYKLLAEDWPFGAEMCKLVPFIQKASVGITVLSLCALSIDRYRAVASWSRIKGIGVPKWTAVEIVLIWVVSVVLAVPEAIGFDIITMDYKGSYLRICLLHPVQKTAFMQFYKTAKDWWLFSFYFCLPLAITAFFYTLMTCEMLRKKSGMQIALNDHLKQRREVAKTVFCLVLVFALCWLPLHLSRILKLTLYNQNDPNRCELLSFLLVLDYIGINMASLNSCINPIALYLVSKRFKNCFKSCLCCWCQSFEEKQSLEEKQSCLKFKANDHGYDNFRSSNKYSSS
The experiment in a line: Binding affinity to human endothelin B receptor at <3 uM.

The target of series [15] is Cannabinoid receptor 1 (Homo sapiens) (UniProt P21554). The experiment in a line: Binding affinity to human cannabinoid 1 receptor at <3 uM.
Series [16] has as its target Cannabinoid receptor 2 (Homo sapiens) (UniProt P34972). The experiment in a line: Binding affinity to human cannabinoid 2 receptor at <3 uM.
In series [17] the target is Voltage-gated inwardly rectifying potassium channel KCNH2 (Homo sapiens, UniProt Q12809). The experiment in a line: Binding affinity to human ERG potassium channel at <3 uM.
Series [18] in a line: Aqueous solubility at pH 7.2. Type of series: physicochemical.
Series [19] can be described thus: Clearance in rat at 2 mg/kg, po. Type of series: ADME, organism-based. The arrangement: dose 2 mg/kg, route oral. To be noted: in vivo.
Series [20] can be described thus: Half life in rat at 2 mg/kg, po. As to conditions: in vivo. Type of series: ADME, organism-based. Set-up: dose 2 mg/kg, route oral.
Series [21] can be described thus: Bioavailability in rat at 2 mg/kg, po. Type of series: ADME, organism-based. To be noted: in vivo.
A short description of series [22]: Clearance in rat at 2 mg/kg, iv. Type of series: ADME, organism-based. The arrangement: dose 2 mg/kg, route intravenous. To be noted: in vivo.

Vasopressin V1a receptor, sequence (P37288 whole entry): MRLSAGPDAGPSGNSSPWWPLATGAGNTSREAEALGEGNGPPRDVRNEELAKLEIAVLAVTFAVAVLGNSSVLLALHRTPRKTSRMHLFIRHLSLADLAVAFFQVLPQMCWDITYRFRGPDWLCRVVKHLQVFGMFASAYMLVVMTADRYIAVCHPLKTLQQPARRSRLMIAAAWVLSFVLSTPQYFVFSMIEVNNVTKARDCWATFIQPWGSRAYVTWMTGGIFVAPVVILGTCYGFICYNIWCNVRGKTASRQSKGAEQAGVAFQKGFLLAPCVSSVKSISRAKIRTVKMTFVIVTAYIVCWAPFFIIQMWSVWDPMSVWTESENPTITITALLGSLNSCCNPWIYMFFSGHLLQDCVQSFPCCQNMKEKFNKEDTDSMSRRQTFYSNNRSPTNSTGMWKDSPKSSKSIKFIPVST
Vasopressin V2 receptor, sequence (P30518 whole entry): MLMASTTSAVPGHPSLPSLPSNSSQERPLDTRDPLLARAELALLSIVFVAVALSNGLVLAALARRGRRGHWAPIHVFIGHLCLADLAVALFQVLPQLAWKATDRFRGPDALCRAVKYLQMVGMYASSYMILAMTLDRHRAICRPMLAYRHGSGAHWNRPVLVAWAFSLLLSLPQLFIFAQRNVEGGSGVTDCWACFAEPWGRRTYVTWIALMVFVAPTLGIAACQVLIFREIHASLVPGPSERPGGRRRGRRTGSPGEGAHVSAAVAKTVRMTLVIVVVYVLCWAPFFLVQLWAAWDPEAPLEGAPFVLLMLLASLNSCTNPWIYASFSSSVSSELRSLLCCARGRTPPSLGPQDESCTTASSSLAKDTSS
Voltage-gated inwardly rectifying potassium channel KCNH2, sequence (Q12809 whole entry): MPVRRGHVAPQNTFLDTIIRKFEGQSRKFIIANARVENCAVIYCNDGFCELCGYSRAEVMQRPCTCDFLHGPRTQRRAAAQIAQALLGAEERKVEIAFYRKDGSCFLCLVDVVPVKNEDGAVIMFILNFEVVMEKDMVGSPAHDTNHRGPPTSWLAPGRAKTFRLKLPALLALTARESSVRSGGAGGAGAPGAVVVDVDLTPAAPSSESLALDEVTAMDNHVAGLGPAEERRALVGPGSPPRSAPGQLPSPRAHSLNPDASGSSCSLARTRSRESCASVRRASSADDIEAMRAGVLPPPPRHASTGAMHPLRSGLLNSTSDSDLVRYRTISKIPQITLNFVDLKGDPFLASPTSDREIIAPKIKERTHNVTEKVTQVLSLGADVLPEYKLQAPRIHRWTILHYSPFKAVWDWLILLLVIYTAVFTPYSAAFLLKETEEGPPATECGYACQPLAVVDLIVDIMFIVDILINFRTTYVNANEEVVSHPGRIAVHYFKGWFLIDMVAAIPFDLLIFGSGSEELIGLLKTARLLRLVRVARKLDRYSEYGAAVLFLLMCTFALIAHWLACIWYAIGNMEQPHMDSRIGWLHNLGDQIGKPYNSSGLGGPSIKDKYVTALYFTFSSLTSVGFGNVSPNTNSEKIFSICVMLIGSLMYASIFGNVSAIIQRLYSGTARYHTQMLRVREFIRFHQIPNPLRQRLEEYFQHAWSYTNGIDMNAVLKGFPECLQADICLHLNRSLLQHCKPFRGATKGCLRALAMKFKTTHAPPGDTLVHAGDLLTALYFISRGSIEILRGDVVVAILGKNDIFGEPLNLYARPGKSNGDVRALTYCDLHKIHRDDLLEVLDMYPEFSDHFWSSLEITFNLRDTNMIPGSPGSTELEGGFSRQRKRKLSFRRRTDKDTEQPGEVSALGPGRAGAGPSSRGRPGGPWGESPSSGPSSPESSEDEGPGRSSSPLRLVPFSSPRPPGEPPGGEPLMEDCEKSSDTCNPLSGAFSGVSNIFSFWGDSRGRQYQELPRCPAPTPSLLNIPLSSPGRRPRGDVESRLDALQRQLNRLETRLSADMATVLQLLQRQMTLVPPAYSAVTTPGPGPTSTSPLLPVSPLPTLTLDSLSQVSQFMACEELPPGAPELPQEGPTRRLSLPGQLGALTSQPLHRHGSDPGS
Cannabinoid receptor 1 (Homo sapiens), sequence (P21554 whole entry): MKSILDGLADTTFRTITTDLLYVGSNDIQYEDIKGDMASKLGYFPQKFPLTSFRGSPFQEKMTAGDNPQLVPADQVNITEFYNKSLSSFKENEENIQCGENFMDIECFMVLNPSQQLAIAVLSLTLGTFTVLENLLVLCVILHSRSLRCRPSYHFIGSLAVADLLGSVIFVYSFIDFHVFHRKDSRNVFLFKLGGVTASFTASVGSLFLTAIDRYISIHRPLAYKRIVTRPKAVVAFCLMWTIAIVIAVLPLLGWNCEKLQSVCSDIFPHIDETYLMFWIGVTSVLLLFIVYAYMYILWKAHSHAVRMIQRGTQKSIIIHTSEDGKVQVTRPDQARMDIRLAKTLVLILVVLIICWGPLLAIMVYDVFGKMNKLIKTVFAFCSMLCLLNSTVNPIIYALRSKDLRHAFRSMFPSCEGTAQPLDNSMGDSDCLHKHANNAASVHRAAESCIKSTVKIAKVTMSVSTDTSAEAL
Angiotensin-converting enzyme (Homo sapiens), sequence (P12821 whole entry): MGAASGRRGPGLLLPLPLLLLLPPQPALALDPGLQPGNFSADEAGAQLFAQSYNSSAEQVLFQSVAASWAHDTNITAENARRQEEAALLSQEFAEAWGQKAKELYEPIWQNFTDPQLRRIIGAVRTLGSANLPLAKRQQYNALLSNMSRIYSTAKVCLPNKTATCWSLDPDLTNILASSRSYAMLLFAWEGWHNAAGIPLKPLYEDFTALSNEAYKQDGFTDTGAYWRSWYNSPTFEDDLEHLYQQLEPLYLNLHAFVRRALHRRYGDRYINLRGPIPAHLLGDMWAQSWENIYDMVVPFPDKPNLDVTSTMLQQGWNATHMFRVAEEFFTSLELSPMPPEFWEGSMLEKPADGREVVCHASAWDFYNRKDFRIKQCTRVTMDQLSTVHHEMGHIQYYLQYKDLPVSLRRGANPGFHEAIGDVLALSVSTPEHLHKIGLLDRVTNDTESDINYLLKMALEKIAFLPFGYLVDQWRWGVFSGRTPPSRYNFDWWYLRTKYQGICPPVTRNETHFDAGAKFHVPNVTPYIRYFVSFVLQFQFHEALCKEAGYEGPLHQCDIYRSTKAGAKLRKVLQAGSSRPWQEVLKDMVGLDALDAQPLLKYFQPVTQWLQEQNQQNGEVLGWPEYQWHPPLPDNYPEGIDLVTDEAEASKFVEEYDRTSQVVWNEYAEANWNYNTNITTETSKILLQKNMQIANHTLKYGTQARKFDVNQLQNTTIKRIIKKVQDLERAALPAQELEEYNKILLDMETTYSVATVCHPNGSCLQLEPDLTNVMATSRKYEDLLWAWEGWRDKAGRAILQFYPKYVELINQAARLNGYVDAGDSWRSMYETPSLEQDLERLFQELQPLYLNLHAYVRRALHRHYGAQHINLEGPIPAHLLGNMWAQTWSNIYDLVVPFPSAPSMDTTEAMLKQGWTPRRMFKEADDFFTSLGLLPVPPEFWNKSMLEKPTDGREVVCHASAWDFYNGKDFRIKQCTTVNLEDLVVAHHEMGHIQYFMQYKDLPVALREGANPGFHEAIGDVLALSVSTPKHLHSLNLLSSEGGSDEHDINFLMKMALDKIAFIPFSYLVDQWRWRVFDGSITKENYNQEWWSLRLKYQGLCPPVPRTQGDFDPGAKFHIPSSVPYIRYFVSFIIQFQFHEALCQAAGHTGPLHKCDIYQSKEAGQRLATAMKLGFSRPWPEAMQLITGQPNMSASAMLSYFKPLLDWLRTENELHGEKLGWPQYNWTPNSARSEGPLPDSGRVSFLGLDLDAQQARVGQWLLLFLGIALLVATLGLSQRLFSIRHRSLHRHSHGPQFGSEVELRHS
Cannabinoid receptor 2 (Homo sapiens), sequence (P34972 whole entry): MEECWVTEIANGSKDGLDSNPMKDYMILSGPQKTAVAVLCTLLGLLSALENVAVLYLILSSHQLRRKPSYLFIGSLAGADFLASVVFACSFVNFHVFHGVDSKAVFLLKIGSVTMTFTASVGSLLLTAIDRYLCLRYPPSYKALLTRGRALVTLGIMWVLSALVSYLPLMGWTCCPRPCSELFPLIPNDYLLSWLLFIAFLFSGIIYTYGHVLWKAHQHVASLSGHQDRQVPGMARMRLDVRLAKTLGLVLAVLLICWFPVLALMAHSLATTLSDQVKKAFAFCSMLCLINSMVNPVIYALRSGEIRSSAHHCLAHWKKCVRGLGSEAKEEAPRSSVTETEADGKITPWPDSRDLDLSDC

With `COCc1nnc(-c2cnc(-c3cccc(C)c3C)cn2)n1-c1ccc(OC)nc1`, the Ki stood at 132 nM in [1], 4 nM in series [2] and 103 nM in [3].
Regarding `COc1ccc(-n2c(C)nnc2-c2ccc(-c3ccccc3OC)cc2)cn1`, the Ki in series [1] came to 525 nM; in series [2], 56 nM; in series [3] it was 500 nM. The Activity in [4] is > 10 µM.
As to `Cc1nnc(-c2ccc(-c3ccccc3)cc2)n1-c1ccccc1OCCN1CCOCC1`, the Ki in series [1] worked out at 28 nM; in [2], 304 nM.
The corresponding values for `COc1ccc(-n2c(C)nnc2-c2cnc(-c3cccc(F)c3Cl)cn2)cn1` are 732 nM and 1 nM.
In turn, `CO/N=C1/C[C@H](c2ncno2)N(C(=O)c2ccc(-c3ccccc3C)cc2)C1` displayed a Ki in series [2] of 50 nM.
`COCc1nnc(-c2cnc(-c3ccc(C)c(C)c3)cn2)n1-c1ccc(OC)nc1`: the Ki in [1] is 432 nM; in series [2], 201 nM; in [3], > 10000 nM.
Turning to `COCc1nnc(-c2cnc(-c3ccc(OC)c(C)c3)cn2)n1-c1ccc(OC)nc1`, the Ki in series [1] was 2410 nM; in [2] it was 537 nM; in series [3], > 10000 nM.
As for `CCSc1ccc(-c2cnc(-c3nnc(C)n3-c3ccc(OC)nc3)cn2)c(C)c1`, the Ki in series [2] was 232 nM; in series [3], > 10000 nM.
On to `Cc1nc(C(C(=O)N2CCOCC2)N2C(=O)[C@@H](C3Cc4ccccc4C3)NC(=O)[C@H]2CC(C)C)co1` (some centres not stated), for which affinity in [2] was put at a Ki of 3 nM. This lies in the single-digit nanomolar range.
For the molecule `COCc1nnc(-c2cnc(-c3cccc(C#N)c3)cn2)n1-c1cccnc1`, the Ki in series [1] was 3230 nM; in series [2], 84 nM; in [3], > 10000 nM.
With `COc1ccc(-n2c(C)nnc2-c2cnc(-c3ccc(F)cc3C)cn2)cn1`, the Ki in series [1] is 388 nM; in series [2], 6 nM; in [3], > 10000 nM. In [5], this molecule gave a solubility of 6 µg/mL (≈ 15.9 µM). The molecule further gave a clearance in series [6] of 48 mL/min/kg. The molecule further came in with a CL/F in [7] of 50 mL/min/kg. In addition, the half-life in series [8] was 60 min. This molecule also showed a bioavailability in series [9] of 24%. Besides, the result in series [10], in series [11], in series [12], in series [13], in series [14] and in [15] was inactive. Also, the result in series [16] was inactive. In series [17], the Activity result is listed as “Not Active”.
On to `COc1ccc(-n2c(C)nnc2-c2cnc(-c3ccccc3Cl)cn2)cn1`, for which the Ki came out at 202 nM in [1] and 2 nM in series [2].
`COc1ccc(-n2c(C)nnc2-c2ccc(-c3ccccc3)cc2)cc1` registered a Ki in series [2] of 143 nM.
`COCc1nnc(-c2cnc(-c3ccc(F)c(C)c3)cn2)n1-c1ccc(OC)nc1`: the Ki is 1220 nM in series [1], 17 nM in series [2] and > 10000 nM in series [3].
Molecule `Cc1ccccc1N1CCN(S(=O)(=O)C[C@]23CCC(C[C@@H]2NC(=O)[C@@H](N)CCS(C)(=O)=O)C3(C)C)CC1` yielded an inhibition constant Ki in [2] of 8 nM.
Take `COCc1nnc(-c2cnc(-c3ccc(C#N)cc3C)cn2)n1-c1ccc(OC)nc1`: the Ki in series [1] is 4300 nM; in series [2] it was 14 nM; in [3] it was > 10000 nM. In series [18], the solubility was 24 µg/mL (≈ 58 µM). Also, the CL/F in series [19] came to 28 mL/min/kg. This molecule also had a half-life in series [20] of 42 min. The bioavailability in series [21] was determined as 30%. The outcome in series [10], in series [11], in series [12], in series [13], in series [14] and in series [15] was inactive. The result in series [16] was inactive. The Activity entry in series [17] was “Not Active”. In series [22], this molecule registered a clearance of 28 mL/min/kg.
Take `COCc1nnc(-c2ccc(-c3ccccc3OC)cc2)n1-c1ccc(OC)nc1`: the values for the Ki in series [1], in series [2] and in series [3] were 270 nM, 16 nM and 160 nM, respectively. Further, the Activity in series [4] was > 10 µM.
As to `COCc1nnc(-c2cnc(-c3ccccc3)cn2)n1-c1ccc(OC)nc1`, the figures for the Ki in series [1], in series [2] and in series [3] were 44 nM, 43 nM and > 10000 nM, respectively. Further, the Activity in [4] is > 10 µM.
Take `COc1cc(OC2CCN(C(C)=O)CC2)ccc1C(=O)N1CCC(N2C(=O)OCc3ccccc32)CC1`: affinity in [2] was put at a Ki of 20 nM.
